The values below come from ChEMBL document CHEMBL2073801, “Chlorpyrifos oxon interacts with the mammalian multidrug resistance protein, P-glycoprotein” (J Toxicol Environ Health, 1996).

“Also recorded” adds a separate entry of the source.

The target of data set [1] is ATP-dependent translocase ABCB1 (Homo sapiens, UniProt P08183). Description: TP_TRANSPORTER: ATP hydrolysis in MDR1-expressing Sf9 cells. In kind it is functional.
Data set [2] has as its target Multidrug resistance protein 1a (Rattus norvegicus) (UniProt Q6PSM0). Put plainly: TP_TRANSPORTER: Immunohistochemisty in vivo, liver of Fischer 344 rat. In kind it is functional, organism-based.
Data set [3] has the same target. Description: TP_TRANSPORTER: Immunohistochemisty in vivo, stomach of Fischer 344 rat. In kind it is functional, organism-based.
Data set [4] shares this target. Put plainly: TP_TRANSPORTER: Immunohistochemisty in vivo, kidney of Fischer 344 rat. In kind it is functional, organism-based.
Data set [5] has the same target. Put plainly: TP_TRANSPORTER: Immunohistochemisty in vivo, jejunum of Fischer 344 rat. In kind it is functional, organism-based.
The target is the same in data set [6]. Description: TP_TRANSPORTER: Immunohistochemisty in vivo, adrenals of Fischer 344 rat. In kind it is functional, organism-based. The following applies: Adrenal tissue.

Chain of Multidrug resistance protein 1a (Rattus norvegicus) (Q6PSM0 as listed by the source): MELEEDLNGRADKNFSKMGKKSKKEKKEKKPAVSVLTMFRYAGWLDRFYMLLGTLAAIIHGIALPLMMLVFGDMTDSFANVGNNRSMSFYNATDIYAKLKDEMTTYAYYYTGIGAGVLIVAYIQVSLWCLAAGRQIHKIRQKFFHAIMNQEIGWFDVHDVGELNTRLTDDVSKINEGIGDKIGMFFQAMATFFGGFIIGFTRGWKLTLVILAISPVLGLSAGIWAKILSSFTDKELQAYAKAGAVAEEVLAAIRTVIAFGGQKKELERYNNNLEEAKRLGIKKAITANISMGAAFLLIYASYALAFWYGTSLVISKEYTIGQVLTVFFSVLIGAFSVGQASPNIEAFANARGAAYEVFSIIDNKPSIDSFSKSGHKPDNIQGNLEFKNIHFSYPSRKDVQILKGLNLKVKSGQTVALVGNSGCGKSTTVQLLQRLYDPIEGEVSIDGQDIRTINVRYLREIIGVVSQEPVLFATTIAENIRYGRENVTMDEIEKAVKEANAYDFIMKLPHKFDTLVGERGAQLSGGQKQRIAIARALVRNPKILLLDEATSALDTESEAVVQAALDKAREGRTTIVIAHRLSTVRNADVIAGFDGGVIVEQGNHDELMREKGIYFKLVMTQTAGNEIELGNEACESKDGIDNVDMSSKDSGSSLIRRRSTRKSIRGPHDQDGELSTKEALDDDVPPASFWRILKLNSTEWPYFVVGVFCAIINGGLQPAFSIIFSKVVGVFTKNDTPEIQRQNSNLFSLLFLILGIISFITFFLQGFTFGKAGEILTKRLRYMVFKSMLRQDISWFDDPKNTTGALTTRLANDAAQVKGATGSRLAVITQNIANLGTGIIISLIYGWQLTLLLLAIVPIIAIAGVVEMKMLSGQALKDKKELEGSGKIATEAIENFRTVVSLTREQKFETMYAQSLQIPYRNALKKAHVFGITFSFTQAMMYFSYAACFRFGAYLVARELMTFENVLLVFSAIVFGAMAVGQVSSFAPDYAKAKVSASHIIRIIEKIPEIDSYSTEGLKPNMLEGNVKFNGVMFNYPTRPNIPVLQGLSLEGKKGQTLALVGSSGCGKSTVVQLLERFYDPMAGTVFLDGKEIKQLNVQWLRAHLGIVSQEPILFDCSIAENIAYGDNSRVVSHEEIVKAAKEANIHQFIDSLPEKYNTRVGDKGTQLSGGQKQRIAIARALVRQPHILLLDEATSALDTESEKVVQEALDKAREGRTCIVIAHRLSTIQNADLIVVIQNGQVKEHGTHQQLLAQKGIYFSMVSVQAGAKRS
Chain of ATP-dependent translocase ABCB1 (P08183 whole entry): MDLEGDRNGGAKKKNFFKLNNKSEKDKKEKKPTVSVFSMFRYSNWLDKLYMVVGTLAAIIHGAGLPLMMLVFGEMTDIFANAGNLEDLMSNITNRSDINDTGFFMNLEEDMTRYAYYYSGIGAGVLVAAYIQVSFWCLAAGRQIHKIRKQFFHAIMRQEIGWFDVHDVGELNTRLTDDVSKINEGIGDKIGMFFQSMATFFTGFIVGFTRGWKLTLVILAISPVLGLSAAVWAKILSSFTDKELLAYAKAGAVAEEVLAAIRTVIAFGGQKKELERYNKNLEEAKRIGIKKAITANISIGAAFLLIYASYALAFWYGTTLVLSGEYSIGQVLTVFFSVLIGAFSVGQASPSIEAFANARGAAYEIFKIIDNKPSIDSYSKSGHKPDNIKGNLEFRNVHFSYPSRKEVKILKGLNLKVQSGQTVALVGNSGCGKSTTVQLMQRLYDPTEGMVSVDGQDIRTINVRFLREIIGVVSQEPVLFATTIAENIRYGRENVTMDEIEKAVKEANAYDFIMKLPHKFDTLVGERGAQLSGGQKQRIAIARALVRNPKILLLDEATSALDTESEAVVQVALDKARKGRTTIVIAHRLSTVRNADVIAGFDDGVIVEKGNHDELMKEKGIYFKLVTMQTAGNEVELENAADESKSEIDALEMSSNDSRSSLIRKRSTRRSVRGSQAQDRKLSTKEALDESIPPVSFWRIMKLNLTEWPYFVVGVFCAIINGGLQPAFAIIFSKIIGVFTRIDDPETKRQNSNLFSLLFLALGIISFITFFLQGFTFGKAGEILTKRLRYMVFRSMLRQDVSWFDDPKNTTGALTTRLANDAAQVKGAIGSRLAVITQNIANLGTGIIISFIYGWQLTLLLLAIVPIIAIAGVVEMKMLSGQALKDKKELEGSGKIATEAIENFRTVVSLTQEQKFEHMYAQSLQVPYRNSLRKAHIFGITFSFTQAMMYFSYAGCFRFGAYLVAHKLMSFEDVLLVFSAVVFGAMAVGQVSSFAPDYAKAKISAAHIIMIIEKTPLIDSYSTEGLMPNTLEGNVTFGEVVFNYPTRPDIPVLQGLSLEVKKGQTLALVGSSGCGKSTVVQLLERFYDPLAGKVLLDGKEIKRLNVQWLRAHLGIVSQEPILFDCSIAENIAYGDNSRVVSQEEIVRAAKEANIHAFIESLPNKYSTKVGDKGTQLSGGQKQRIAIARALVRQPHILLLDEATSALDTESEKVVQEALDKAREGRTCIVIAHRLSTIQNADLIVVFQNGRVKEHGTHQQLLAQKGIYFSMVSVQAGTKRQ

Turning to `CCOP(=S)(OCC)Oc1nc(Cl)c(Cl)cc1Cl` [CHLORPYRIFOS], the Activity result in data set [1] was “substrate [+]; also recorded: is not a substrate [-]”; in data set [2] it was “inducer [+]”; in data set [3], “inducer [+]”; in data set [4] it was “inducer [+]”; in data set [5], “inducer [+]”; in data set [6], “inducer [+]”.
